Test systems include KM12; NCI-H522; M19-MEL; HOP-92; K562; HL-60; UACC-62; OVCAR-5; SF-539; RPMI-8226; Malme-3M; HCT-15; M14; SNB-19; HCC 2998; MDA-MB-231; DU-145; NCI-H23; SK-MEL-5; OVCAR-3.
Common to all, as to test: growth of human tumour cells (NCI), 48 h

Structures are written as SMILES.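 These data come from cells grown in 96-well plates and exposed to compound for 48 hours at five concentrations. Abbreviation: GI50, concentration required for 50% inhibition of growth.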 Activity calls are given as the source filed them. No stated cut-off is given here; in the data, active = GI50 up to about 1.1 µM and inactive = higher.

In the case of `C=C1[C@@H](C)[C@H]2[C@H](Cc3ccccc3)NC(=O)[C@]23OC(=O)/C=C/[C@H](O)CCC[C@@H](C)C/C=C/[C@H]3[C@@H]1O`, the GI50 was 53.3 µM (inactive) in the assay on KM12; 9.23 µM (inactive) with NCI-H522; 45.8 µM (inactive) in the assay with M19-MEL; 0.436 µM (active) in the assay on HOP-92; 9.18 µM (inactive) in the assay with K562; 16.1 µM (inactive) in the assay on HL-60. In addition, the GI50 in the assay with UACC-62 is 22.8 µM (inactive); in the assay with OVCAR-5, 32.2 µM (inactive); in the assay on SF-539, 0.465 µM (active); with RPMI-8226 it was 1.82 µM (inactive); in the assay with Malme-3M, 16.3 µM (inactive); in the assay with HCT-15 it was 0.619 µM. Besides, the GI50 in the assay with M14 was > 100 µM (inactive); with SNB-19, 5.66 µM (inactive); in the assay with HCC 2998 it was 50 µM (inactive); in the assay on MDA-MB-231, 5.31 µM (inactive); with DU-145, 30.1 µM (inactive); in the assay with NCI-H23, 7 µM (inactive). Further, the GI50 with SK-MEL-5 was 9.53 µM (inactive); in the assay with OVCAR-3, 7.48 µM (inactive).
In the case of `Cc1cn([C@H]2C[C@H](N=[N+]=[N-])[C@@H](CO)O2)c(=O)[nH]c1=O` [ZIDOVUDINE], the GI50 in the assay with KM12 is 90.8 µM (inactive); in the assay with NCI-H522, > 100 µM (inactive); in the assay on M19-MEL it was > 100 µM (inactive); with HOP-92, > 100 µM (inactive); in the assay with K562, 177 µM (inactive); in the assay with HL-60 it was 646 µM (inactive). Besides, the GI50 in the assay on UACC-62 is 239 µM (inactive); in the assay on OVCAR-5, > 84.5 µM (inactive); in the assay with RPMI-8226 it was 48.3 µM (inactive); in the assay with Malme-3M it was > 100 µM (inactive); with HCT-15, over 100 µM; with M14 it was > 100 µM (inactive). Further, the GI50 in the assay with HCC 2998 is > 100 µM (inactive); in the assay on MDA-MB-231, > 100 µM (inactive); with DU-145, 420 µM (inactive); in the assay on NCI-H23, > 100 µM (inactive); with SK-MEL-5, 118 µM (inactive); in the assay with OVCAR-3 it was > 100 µM (inactive).
As to `COc1ccc(CC2C(=O)NC(C)C(=O)N(C)C3C(=O)N(C)C(Cc4ccc(O)c(c4)Oc4ccc(cc4)C3O)C(=O)NC(C)C(=O)NC(C)C(=O)N2C)cc1` (stereo not given), the GI50 in the assay with KM12 was 0.00215 µM (active); in the assay with NCI-H522 it was 0.0125 µM (active); with M19-MEL it was 0.013 µM (active); with HOP-92, 0.0137 µM (active); with K562 it was 0.0179 µM (active); with HL-60 it was 0.00308 µM (active). Further, the GI50 in the assay with UACC-62 is 0.0138 µM (active); in the assay on OVCAR-5, 0.0303 µM (active); in the assay with SF-539, 0.0136 µM (active); in the assay with RPMI-8226 it was 0.014 µM (active); with Malme-3M it was 0.0171 µM (active); in the assay on HCT-15 it was 0.658 µM. Besides, the GI50 in the assay on M14 is 0.0275 µM (active); with SNB-19 it was 0.00392 µM (active); in the assay with HCC 2998 it was 0.0391 µM (active); with MDA-MB-231, < 0.01 µM (active); in the assay with DU-145, < 0.01 µM (active); in the assay on NCI-H23 it was 0.016 µM (active). The GI50 with SK-MEL-5 was 0.00746 µM (active); in the assay with OVCAR-3, 0.0113 µM (active).
With `CNC(=O)OCc1nc([S+](C)[O-])n(C)c1COC(=O)NC` (stereo not given), the GI50 in the assay with KM12 was > 100 µM (inactive); in the assay with NCI-H522 it was > 100 µM (inactive); in the assay with M19-MEL it was > 45.1 µM (inactive); with HOP-92, > 48.4 µM (inactive); with K562, > 100 µM (inactive); in the assay on HL-60, > 100 µM (inactive). The GI50 is > 49.1 µM (inactive) in the assay on UACC-62; > 100 µM (inactive) with OVCAR-5; > 100 µM (inactive) with SF-539; > 100 µM (inactive) with RPMI-8226; > 100 µM (inactive) in the assay on Malme-3M; over 100 µM with HCT-15. The GI50 was > 29.1 µM (inactive) with M14; > 100 µM (inactive) with SNB-19; > 100 µM (inactive) in the assay on HCC 2998; > 100 µM (inactive) with NCI-H23; > 46.5 µM (inactive) in the assay on SK-MEL-5; > 100 µM (inactive) in the assay with OVCAR-3.
Turning to `NC(=O)c1c[se]c(C2OC(CO)C(O)C2O)n1` (stereo not given), the GI50 in the assay with KM12 is 0.57 µM (active); in the assay on NCI-H522, 6.25 µM (inactive); in the assay on M19-MEL it was 5.28 µM (inactive); in the assay on HOP-92 it was > 100 µM (inactive); in the assay with K562 it was 0.627 µM (active); in the assay with HL-60, 0.984 µM (active). The GI50 in the assay with UACC-62 is 12.3 µM (inactive); in the assay on OVCAR-5 it was 31 µM (inactive); in the assay on SF-539, 2.43 µM (inactive); with RPMI-8226 it was 6.43 µM (inactive); in the assay with Malme-3M, > 100 µM (inactive); in the assay on HCT-15, 0.537 µM. For the same compound, the GI50 was 1.63 µM (inactive) in the assay on M14; 6.35 µM (inactive) in the assay on SNB-19; 32.4 µM (inactive) in the assay with HCC 2998; 5.01 µM (inactive) in the assay with MDA-MB-231; 31.8 µM (inactive) with DU-145; 11 µM (inactive) with NCI-H23. Besides, the GI50 is 10.3 µM (inactive) with SK-MEL-5 and 0.74 µM (active) in the assay on OVCAR-3.
Regarding `C=C[Si](C)(C)COC(=O)/C(C#N)=C/C=C/c1ccccc1`, the GI50 is > 100 µM (inactive) in the assay with KM12; 46.3 µM (inactive) in the assay on NCI-H522; 99.5 µM (inactive) with M19-MEL; > 100 µM (inactive) with HOP-92; 59 µM (inactive) with K562; 39.2 µM (inactive) in the assay with HL-60. Further, the GI50 is 88.7 µM (inactive) in the assay on UACC-62; > 100 µM (inactive) in the assay on OVCAR-5; > 100 µM (inactive) with SF-539; 37.2 µM (inactive) with RPMI-8226; > 100 µM (inactive) with Malme-3M; 78.2 µM in the assay with HCT-15. Moreover, the GI50 with M14 was > 100 µM (inactive); in the assay on SNB-19 it was > 100 µM (inactive); in the assay with HCC 2998 it was > 100 µM (inactive); with NCI-H23 it was > 100 µM (inactive); with SK-MEL-5, > 100 µM (inactive); in the assay on OVCAR-3, 34.8 µM (inactive).
For the compound `O=C1C2=C(N[C@@H](c3ccccc3)[C@H](c3ccccc3)N2)C(=O)c2ccccc21`, the GI50 with KM12 is > 100 µM (inactive); in the assay on NCI-H522, > 100 µM (inactive); in the assay with M19-MEL it was > 100 µM (inactive); in the assay with HOP-92 it was 8.05 µM (inactive); in the assay with K562 it was > 100 µM (inactive); with HL-60 it was > 100 µM (inactive). Further, the GI50 was > 100 µM (inactive) in the assay with UACC-62; > 100 µM (inactive) in the assay with OVCAR-5; > 100 µM (inactive) with SF-539; > 100 µM (inactive) in the assay with RPMI-8226; > 100 µM (inactive) in the assay on Malme-3M; over 100 µM with HCT-15. Also, the GI50 with M14, in the assay with SNB-19, in the assay on HCC 2998, in the assay on NCI-H23, with SK-MEL-5 and in the assay on OVCAR-3 was > 100 µM (inactive) in each case.
In the case of `Cc1cc(N(CCC#N)CCC#N)ccc1/C(Sc1ccccc1)=C(\NC(=O)/C=C/c1ccccc1)C(=O)Sc1ccccc1`, the GI50 is 3.14 µM (inactive) in the assay on KM12; 0.587 µM (active) in the assay on NCI-H522; 3.22 µM (inactive) in the assay with M19-MEL; 2.92 µM (inactive) in the assay with HOP-92; 2.41 µM (inactive) in the assay on K562; 0.628 µM (active) with HL-60. Besides, the GI50 is 2.82 µM (inactive) in the assay on UACC-62; 5.45 µM (inactive) in the assay on OVCAR-5; 1.47 µM (inactive) with SF-539; 0.991 µM (active) in the assay on RPMI-8226; 8.28 µM (inactive) with Malme-3M; 3.73 µM in the assay on HCT-15. The GI50 with M14 was 1.82 µM (inactive); in the assay with SNB-19, 9.84 µM (inactive); with HCC 2998, 11.4 µM (inactive); with NCI-H23 it was 2.22 µM (inactive); with SK-MEL-5, 2.77 µM (inactive); in the assay with OVCAR-3, 2.92 µM (inactive).
